# Data as given in ChEMBL document CHEMBL1129048, “A novel, picomolar inhibitor of human immunodeficiency virus type 1 protease” (J Med Chem, 1996).
# Legend:
# MT4 = experiment: In vitro effective concentration against MT-4 cell line; assay type: functional, cell-based; conditions: Homo sapiens
# [1] = biological target: Human immunodeficiency virus type 1 protease (Human immunodeficiency virus 1, UniProt Q72874); experiment: Inhibitory activity against HIV-1 Protease
SMILES,EC50 (MT4) [nM],Ki [1] [nM]
COc1cc(CN2C(=O)N(CC3CC3)N(Cc3ccccc3)C[C@@H](O)[C@H]2Cc2ccccc2)ccc1O,170,0.062
O=C1N(Cc2ccc(CO)cc2)[C@H](Cc2ccccc2)[C@H](O)CN(Cc2ccoc2)N1Cc1ccc(CO)cc1,100,0.49
O=C1N(Cc2ccccc2)[C@H](Cc2ccccc2)[C@H](O)CN(Cc2ccccc2)N1Cc1ccccc1,2860,2
COc1cc(CN2C(=O)N(Cc3ccc(O)c(OC)c3)N(Cc3ccccc3)C[C@@H](O)[C@H]2Cc2ccccc2)ccc1O,2,–
COc1cccc(CN2C(=O)N(Cc3cccc(OC)c3)N(Cc3ccccc3)C[C@@H](O)[C@H]2Cc2ccccc2)c1,930,0.22
O=C1N(Cc2ccc(CO)cc2)[C@H](Cc2ccccc2)[C@H](O)CN(Cc2ccccc2)N1Cc1ccc(CO)cc1,90,0.22
O=C1N(Cc2ccc(O)cc2)[C@H](Cc2ccccc2)[C@H](O)CN(Cc2ccccc2)N1Cc1ccc(O)cc1,10,0.07
O=C1N(Cc2ccc(CO)cc2)[C@H](Cc2ccccc2)[C@H](O)[C@@H](O)[C@@H](Cc2ccccc2)N1Cc1ccc(CO)cc1 [DMP-323],30,0.23
